In US20240002407A1, “THIENOPYRIMIDINONE DERIVATIVES” (Hoffmann-La Roche Inc., priority 2021, published 2024):

Each molecule was assayed on mutant HTT protein (mHTT) (assay: Homogeneous Time Resolved Fluorescence (HTRF) assay for HTT lowering in GENEAe020-A cells). Details: reduction of mHTT; Huntington patient human cells (GENEAe020-A cell line); 48 hours incubation; mean from three replicates.
Type: cell-based
Procedure: The HTRF assay was adapted from Weiss et al. (Analytical Biochemistry Volume 395, Issue 1, 1 Dec. 2009, Pages 8-15 and Analytical Biochemistry Volume 410, 2011, Pages 304-306) to cells from GENEAe020-A cell line (https://hpscreg.eu/cell-line/GENEAe020-A).
Compounds were tested for the effect of mutant HTT levels in Huntington patient human cells (GENEAe020-A cell line) using Homogeneous Time Resolved Fluorescence (HTRF) directed towards mutant HTT protein (mHTT). The GENEAe020-A cell line was derived by Genea Biocells from human blastocysts of HD donors. After assessing viability, cells were plated into 384 well collagen coated plates in growth media. Once cells adhered, media was removed and test compounds dissolved in DMSO were diluted with buffer solution and added to the adherent cells. Controls included experiments with no cells, DMSO with no compound, and Hsp90 inhibitor control. Cells were incubated with compounds and controls for 48 hours. Then, the cells were lysed and transferred to an assay plate containing HTRF labeled monoclonal antibodies developed by Paul Patterson (Ko et al., Brain Research Bulletin, Volume 56, Numbers 3 and 4, 2001, Pages 319-329) which recognize specific areas of the HTT protein. The terbium labeled “donor” antibody (2B7) binds to the N-terminus of the HTT protein and the Alexa488 labeled “acceptor” antibody (MW1) is specific for the polyglutamine region of the protein. Binding of the acceptor labeled antibody is more efficient for the extended polyglutamine repeats of mutant HTT protein which translates into a signal boost which enables the specific measurement of mutant HTT protein level. The HTRF donor and acceptor detection reagents were incubated with the cell lysate and the ratio between the signals of the two fluorophores is indicative of the relative quantities of mHTT.
Molecule `Cc1cn2nc(-c3nc4sc([C@H]5CCNC[C@H]5F)cc4c(=O)[nH]3)cc(C)c2n1` (racemic) [Example 2, 2-(2,8-Dimethylimidazo[1,2-b]pyridazin-6-yl)-6-[(3SR,4SR)-3-fluoro-4-piperidyl]-3H-thieno[2,3-d]pyrimidin-4-one] has an EC50 of 205 nM. Molecule `Cc1cn2nc(-c3nc4sc(C5CCNCC5(F)F)cc4c(=O)[nH]3)cc(C)c2n1` (stereo not drawn) [Example 3, 6-(3,3-Difluoro-4-piperidyl)-2-(2,8-dimethylimidazo[1,2-b]pyridazin-6-yl)-3H-thieno[2,3-d]pyrimidin-4-one] has an EC50 of 2270 nM. For `Cc1cn2nc(-c3nc4sc(C5CCNCC5)cc4c(=O)[nH]3)cc(C)c2n1` [Example 1, 2-(2,8-Dimethylimidazo[1,2-b]pyridazin-6-yl)-6-(4-piperidyl)-3H-thieno[2,3-d]pyrimidin-4-one hydrogen chloride], the EC50 was 50 nM. In the case of `Cc1cn2nc(-c3nc4sc(OC5CCNCC5)cc4c(=O)[nH]3)cc(C)c2n1` [Example 5, 2-(2,8-Dimethylimidazo[1,2-b]pyridazin-6-yl)-6-(4-piperidyloxy)-3H-thieno[2,3-d]pyrimidin-4-one], the EC50 is reported as 282 nM. For `Cc1cn2nc(-c3nc4sc(C5CCNC6(CC6)C5)cc4c(=O)[nH]3)cc(C)c2n1` (stereo not drawn) [Example 6, 6-(4-Azaspiro[2.5]octan-7-yl)-2-(2,8-dimethylimidazo[1,2-b]pyridazin-6-yl)-3H-thieno[2,3-d]pyrimidin-4-one], the EC50 was 203 nM. Work on `Cc1cn2nc(-c3nc4sc(OC5CNC5)cc4c(=O)[nH]3)cc(C)c2n1` [Example 4, 6-(Azetidin-3-yloxy)-2-(2,8-dimethylimidazo[1,2-b]pyridazin-6-yl)-3H-thieno[2,3-d]pyrimidin-4-one] yielded an EC50 of 4700 nM.
